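Exposure lasted 48 hours, with cells grown in 96-well plates and compounds tested at five concentrations. GI50: concentration for 50% inhibition of growth.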 Activity calls are given as the source filed them. Rule as the data show it: active = GI50 up to about 1.1 µM and inactive = higher.
Assays:
Assay in all cases: DTP human tumour cell line panel, 48 h
[1] = tested on: HCT-116
[2] = tested on: COLO 205
[3] = tested on: PC-3
[4] = tested on: Malme-3M
[5] = tested on: HT-29
[6] = tested on: CAKI-1
[7] = tested on: DU-145
[8] = tested on: MOLT-4
[9] = tested on: SF-539
[10] = tested on: OVCAR-5
[11] = tested on: SW-620
[12] = tested on: TK-10
[13] = tested on: CCRF-CEM
[14] = tested on: 786-0
[15] = tested on: SK-MEL-2
[16] = tested on: NCI-H23
[17] = tested on: M14
[18] = tested on: LOX IMVI
[19] = tested on: SF-295

`C[C@H](NC(=O)c1ccc(CNC(=O)/C=C/c2cccc(Oc3ccccc3)c2)cc1)c1ccccc1` was tested, and the GI50 [1] was > 100 µM (inactive), the GI50 [2] was > 100 µM (inactive) and the GI50 [3] was > 100 µM (inactive). The GI50 [4] was > 100 µM (inactive), the GI50 [5] was > 100 µM (inactive) and the GI50 [6] was 22.6 µM (inactive). The GI50 [7] was > 100 µM (inactive), the GI50 [8] was 93.3 µM (inactive) and the GI50 [9] was 27 µM (inactive). For the same compound, the GI50 [10] was > 100 µM (inactive), the GI50 [11] was > 100 µM (inactive) and the GI50 [12] was 61.4 µM (inactive). The GI50 [13] was > 100 µM (inactive), the GI50 [14] was 36.5 µM (inactive) and the GI50 [15] was > 100 µM (inactive). The GI50 [16] was > 100 µM (inactive), the GI50 [17] was > 100 µM (inactive) and the GI50 [18] was > 100 µM (inactive). The GI50 [19] was 40.8 µM (inactive).

With `CC(C)=CCC/C(C)=C/CC/C(C)=C/CC/C(C)=C/CC/C(C)=C/CC/C(C)=C/CC/C(C)=C/CC/C(C)=C/CC/C(C)=C/CO` [SOLANESOL] the GI50 [1] was > 100 µM (inactive), the GI50 [2] was > 100 µM (inactive) and the GI50 [3] was > 100 µM (inactive). The GI50 [4] was > 100 µM (inactive), the GI50 [5] was > 100 µM (inactive) and the GI50 [6] was > 100 µM (inactive). For the same compound, the GI50 [7] was > 100 µM (inactive), the GI50 [8] was > 100 µM (inactive) and the GI50 [9] was > 100 µM (inactive). For the same compound, the GI50 [10] was > 100 µM (inactive), the GI50 [11] was > 100 µM (inactive) and the GI50 [12] was > 100 µM (inactive). The GI50 [13] was > 100 µM (inactive), the GI50 [14] was > 100 µM (inactive) and the GI50 [15] was > 100 µM (inactive). The GI50 [16] was > 100 µM (inactive), the GI50 [17] was > 100 µM (inactive) and the GI50 [18] was > 100 µM (inactive). For the same compound, the GI50 [19] was > 100 µM (inactive).

In the case of `Oc1ccc(SCc2ccc(NCc3ccccc3)cc2)cc1`, the GI50 [1] is reported as 46.6 µM (inactive), the GI50 [2] is reported as 35.4 µM (inactive) and the GI50 [3] is reported as 18.9 µM (inactive). For the same compound, the GI50 [4] was 31.7 µM (inactive), the GI50 [5] was 20 µM (inactive) and the GI50 [6] was 19.6 µM (inactive). The GI50 [7] was 32 µM (inactive), the GI50 [8] was 11.4 µM (inactive) and the GI50 [9] was 36.6 µM (inactive). For the same compound, the GI50 [10] was 27.2 µM (inactive), the GI50 [11] was 36.4 µM (inactive) and the GI50 [12] was 50.4 µM (inactive). The GI50 [13] was 1.24 µM (inactive), the GI50 [14] was 0.869 µM (active) and the GI50 [15] was 21.7 µM (inactive). The GI50 [16] was 24.7 µM (inactive), the GI50 [17] was 19.4 µM (inactive) and the GI50 [18] was 19.9 µM (inactive). For the same compound, the GI50 [19] was 22.3 µM (inactive).

`CN(C)Cc1c[nH]c2ncnc(O)c12` was tested, and the GI50 [1] was 22.4 µM (inactive), the GI50 [2] was 35.8 µM (inactive) and the GI50 [3] was 56.2 µM (inactive). The GI50 [4] was 77.1 µM (inactive), the GI50 [5] was 28.2 µM (inactive) and the GI50 [6] was 19.8 µM (inactive). For the same compound, the GI50 [7] was 26.4 µM (inactive), the GI50 [8] was 7.8 µM (inactive) and the GI50 [9] was 22.4 µM (inactive). The GI50 [10] was > 100 µM (inactive), the GI50 [11] was 27.2 µM (inactive) and the GI50 [12] was 37.7 µM (inactive). The GI50 [13] was 19.2 µM (inactive), the GI50 [14] was 23.2 µM (inactive) and the GI50 [15] was 43.6 µM (inactive). The GI50 [16] was 32.2 µM (inactive), the GI50 [17] was 41.2 µM (inactive) and the GI50 [18] was 19 µM (inactive). The GI50 [19] was > 100 µM (inactive).

With `Cc1c(/C=N/NC(=S)Nc2ccc(Cl)cc2)c(=O)n(-c2ccccc2)n1C` the GI50 [1] was 24.9 µM (inactive), the GI50 [2] was > 71.1 µM (inactive) and the GI50 [3] was > 52.1 µM (inactive). The GI50 [4] was > 34.7 µM (inactive), the GI50 [5] was > 100 µM (inactive) and the GI50 [6] was 9.75 µM (inactive). The GI50 [7] was 42.7 µM (inactive), the GI50 [8] was > 60.8 µM (inactive) and the GI50 [9] was 15 µM (inactive). For the same compound, the GI50 [10] was > 56.5 µM (inactive), the GI50 [11] was > 78.5 µM (inactive) and the GI50 [12] was 23.6 µM (inactive). For the same compound, the GI50 [13] was > 75.2 µM (inactive), the GI50 [14] was 16.3 µM (inactive) and the GI50 [15] was 21.6 µM (inactive). The GI50 [16] was 24.8 µM (inactive), the GI50 [17] was > 62.8 µM (inactive) and the GI50 [18] was 32.6 µM (inactive). For the same compound, the GI50 [19] was 18.4 µM (inactive).

With `COc1cc(C)cc2c1c(=O)c1ccccc1n2C` the GI50 [1] was 30 µM (inactive), the GI50 [2] was 27.2 µM (inactive) and the GI50 [3] was 29.2 µM (inactive). The GI50 [4] was 39.7 µM (inactive), the GI50 [5] was 28.7 µM (inactive) and the GI50 [6] was 54.8 µM (inactive). For the same compound, the GI50 [7] was 49.3 µM (inactive), the GI50 [8] was 31.3 µM (inactive) and the GI50 [9] was 20.2 µM (inactive). For the same compound, the GI50 [10] was 34.8 µM (inactive), the GI50 [11] was 46.2 µM (inactive) and the GI50 [12] was 56.4 µM (inactive). For the same compound, the GI50 [13] was 24.4 µM (inactive), the GI50 [14] was 38.5 µM (inactive) and the GI50 [15] was 15.9 µM (inactive). For the same compound, the GI50 [16] was 40.8 µM (inactive), the GI50 [17] was 34.7 µM (inactive) and the GI50 [18] was 16.8 µM (inactive). For the same compound, the GI50 [19] was 20.8 µM (inactive).

`O=C1C(/N=N/c2ccc(-c3nc4ccccc4[nH]3)cc2)NC(=S)N1c1ccccc1` (centres undefined) was tested, and the GI50 [1] was 36.8 µM (inactive), the GI50 [2] was 73.6 µM (inactive) and the GI50 [3] was 98.2 µM (inactive). The GI50 [4] was > 100 µM (inactive), the GI50 [5] was 31.8 µM (inactive) and the GI50 [6] was > 100 µM (inactive). For the same compound, the GI50 [7] was 28.6 µM (inactive), the GI50 [8] was 18.9 µM (inactive) and the GI50 [9] was 51.9 µM (inactive). For the same compound, the GI50 [10] was > 100 µM (inactive), the GI50 [11] was 28.1 µM (inactive) and the GI50 [12] was > 100 µM (inactive). For the same compound, the GI50 [13] was 10.7 µM (inactive), the GI50 [14] was 18.9 µM (inactive) and the GI50 [15] was > 100 µM (inactive). For the same compound, the GI50 [16] was 57.4 µM (inactive), the GI50 [17] was > 100 µM (inactive) and the GI50 [18] was 19.8 µM (inactive). For the same compound, the GI50 [19] was 91.6 µM (inactive).

For `C=CC(=O)N1C/C(=C\c2ccc(F)cc2)C(=O)/C(=C/c2ccc(F)cc2)C1`, the GI50 [1] was 0.0557 µM (active), the GI50 [2] was 0.391 µM (active) and the GI50 [3] was 0.215 µM (active). The GI50 [4] was 0.735 µM (active), the GI50 [5] was 0.071 µM (active) and the GI50 [6] was 0.475 µM (active). The GI50 [7] was 1.67 µM (inactive), the GI50 [8] was 0.207 µM (active) and the GI50 [9] was 0.214 µM (active). For the same compound, the GI50 [10] was 0.622 µM (active), the GI50 [11] was 0.162 µM (active) and the GI50 [12] was 1 µM (active). The GI50 [13] was 0.0883 µM (active), the GI50 [14] was 0.222 µM (active) and the GI50 [15] was 0.843 µM (active). The GI50 [16] was 1.27 µM (inactive), the GI50 [17] was 0.328 µM (active) and the GI50 [18] was 0.0925 µM (active). The GI50 [19] was 0.44 µM (active).

`COc1cc2c3cc1Oc1c(OC)c(OC)cc4c1C(Cc1ccc(O)c(c1)Oc1ccc(cc1)CC3N(C)CC2)N(C)CC4` (centres undefined) was tested, and the GI50 [1] was 45.3 µM (inactive), the GI50 [2] was 32 µM (inactive) and the GI50 [3] was 31.3 µM (inactive). For the same compound, the GI50 [4] was 59.2 µM (inactive), the GI50 [5] was 31.3 µM (inactive) and the GI50 [6] was 17.9 µM (inactive). For the same compound, the GI50 [7] was 37.8 µM (inactive), the GI50 [8] was 44.4 µM (inactive) and the GI50 [9] was 24.8 µM (inactive). The GI50 [10] was 39.7 µM (inactive), the GI50 [11] was 69.8 µM (inactive) and the GI50 [12] was 42.8 µM (inactive). For the same compound, the GI50 [13] was 17.2 µM (inactive), the GI50 [14] was > 100 µM (inactive) and the GI50 [15] was 28.8 µM (inactive). For the same compound, the GI50 [16] was 14.8 µM (inactive), the GI50 [17] was 33.7 µM (inactive) and the GI50 [18] was 58.7 µM (inactive). For the same compound, the GI50 [19] was 21.5 µM (inactive).

In the case of `NC1=CN2c3ccccc3N(CC(=O)O)C2C=C1` (centres undefined), the GI50 [1] is reported as > 100 µM (inactive), the GI50 [2] is reported as > 100 µM (inactive) and the GI50 [3] is reported as > 100 µM (inactive). For the same compound, the GI50 [4] was > 100 µM (inactive), the GI50 [5] was > 100 µM (inactive) and the GI50 [6] was > 100 µM (inactive). For the same compound, the GI50 [7] was > 100 µM (inactive), the GI50 [8] was > 100 µM (inactive) and the GI50 [9] was > 100 µM (inactive). The GI50 [10] was > 100 µM (inactive), the GI50 [11] was > 100 µM (inactive) and the GI50 [12] was > 100 µM (inactive). The GI50 [13] was > 100 µM (inactive), the GI50 [14] was > 100 µM (inactive) and the GI50 [15] was > 100 µM (inactive). The GI50 [16] was > 100 µM (inactive), the GI50 [17] was > 100 µM (inactive) and the GI50 [18] was > 100 µM (inactive). The GI50 [19] was > 100 µM (inactive).

For `Nc1ccn([C@H]2CO[C@@H](CO)O2)c(=O)n1`, the GI50 [1] was 1.39 µM (inactive), the GI50 [2] was 83 µM (inactive) and the GI50 [3] was 1.39 µM (inactive). For the same compound, the GI50 [4] was 62.2 µM (inactive), the GI50 [5] was 15 µM (inactive) and the GI50 [6] was 0.222 µM (active). The GI50 [7] was 0.0658 µM (active), the GI50 [8] was 0.28 µM (active) and the GI50 [9] was 4.46 µM (inactive). For the same compound, the GI50 [10] was 27.9 µM (inactive), the GI50 [11] was > 56.6 µM (inactive) and the GI50 [12] was > 100 µM (inactive). For the same compound, the GI50 [13] was 0.238 µM (active), the GI50 [14] was 2.87 µM (inactive) and the GI50 [15] was > 100 µM (inactive). The GI50 [16] was 15.1 µM (inactive), the GI50 [17] was 0.83 µM (active) and the GI50 [18] was 0.804 µM (active). The GI50 [19] was 1.2 µM (inactive).
